This is an account of results in patent publication US10172829B2 (priority 2014, dated 2019).

The IC50 is the concentration that inhibits the measured activity by half. Broadly, the EC50 is the concentration needed to bring the measured effect to its halfway point.

T1 sequence (P18177 544-799 limits assumed): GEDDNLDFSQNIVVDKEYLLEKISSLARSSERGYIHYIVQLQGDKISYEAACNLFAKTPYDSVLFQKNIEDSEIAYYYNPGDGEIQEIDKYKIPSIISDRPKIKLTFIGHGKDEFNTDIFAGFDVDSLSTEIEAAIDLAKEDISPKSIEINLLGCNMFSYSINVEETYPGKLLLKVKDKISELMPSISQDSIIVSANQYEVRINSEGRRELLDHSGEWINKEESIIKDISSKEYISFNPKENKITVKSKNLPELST
Sequence of TcdB (P18177 2-2366 limits assumed): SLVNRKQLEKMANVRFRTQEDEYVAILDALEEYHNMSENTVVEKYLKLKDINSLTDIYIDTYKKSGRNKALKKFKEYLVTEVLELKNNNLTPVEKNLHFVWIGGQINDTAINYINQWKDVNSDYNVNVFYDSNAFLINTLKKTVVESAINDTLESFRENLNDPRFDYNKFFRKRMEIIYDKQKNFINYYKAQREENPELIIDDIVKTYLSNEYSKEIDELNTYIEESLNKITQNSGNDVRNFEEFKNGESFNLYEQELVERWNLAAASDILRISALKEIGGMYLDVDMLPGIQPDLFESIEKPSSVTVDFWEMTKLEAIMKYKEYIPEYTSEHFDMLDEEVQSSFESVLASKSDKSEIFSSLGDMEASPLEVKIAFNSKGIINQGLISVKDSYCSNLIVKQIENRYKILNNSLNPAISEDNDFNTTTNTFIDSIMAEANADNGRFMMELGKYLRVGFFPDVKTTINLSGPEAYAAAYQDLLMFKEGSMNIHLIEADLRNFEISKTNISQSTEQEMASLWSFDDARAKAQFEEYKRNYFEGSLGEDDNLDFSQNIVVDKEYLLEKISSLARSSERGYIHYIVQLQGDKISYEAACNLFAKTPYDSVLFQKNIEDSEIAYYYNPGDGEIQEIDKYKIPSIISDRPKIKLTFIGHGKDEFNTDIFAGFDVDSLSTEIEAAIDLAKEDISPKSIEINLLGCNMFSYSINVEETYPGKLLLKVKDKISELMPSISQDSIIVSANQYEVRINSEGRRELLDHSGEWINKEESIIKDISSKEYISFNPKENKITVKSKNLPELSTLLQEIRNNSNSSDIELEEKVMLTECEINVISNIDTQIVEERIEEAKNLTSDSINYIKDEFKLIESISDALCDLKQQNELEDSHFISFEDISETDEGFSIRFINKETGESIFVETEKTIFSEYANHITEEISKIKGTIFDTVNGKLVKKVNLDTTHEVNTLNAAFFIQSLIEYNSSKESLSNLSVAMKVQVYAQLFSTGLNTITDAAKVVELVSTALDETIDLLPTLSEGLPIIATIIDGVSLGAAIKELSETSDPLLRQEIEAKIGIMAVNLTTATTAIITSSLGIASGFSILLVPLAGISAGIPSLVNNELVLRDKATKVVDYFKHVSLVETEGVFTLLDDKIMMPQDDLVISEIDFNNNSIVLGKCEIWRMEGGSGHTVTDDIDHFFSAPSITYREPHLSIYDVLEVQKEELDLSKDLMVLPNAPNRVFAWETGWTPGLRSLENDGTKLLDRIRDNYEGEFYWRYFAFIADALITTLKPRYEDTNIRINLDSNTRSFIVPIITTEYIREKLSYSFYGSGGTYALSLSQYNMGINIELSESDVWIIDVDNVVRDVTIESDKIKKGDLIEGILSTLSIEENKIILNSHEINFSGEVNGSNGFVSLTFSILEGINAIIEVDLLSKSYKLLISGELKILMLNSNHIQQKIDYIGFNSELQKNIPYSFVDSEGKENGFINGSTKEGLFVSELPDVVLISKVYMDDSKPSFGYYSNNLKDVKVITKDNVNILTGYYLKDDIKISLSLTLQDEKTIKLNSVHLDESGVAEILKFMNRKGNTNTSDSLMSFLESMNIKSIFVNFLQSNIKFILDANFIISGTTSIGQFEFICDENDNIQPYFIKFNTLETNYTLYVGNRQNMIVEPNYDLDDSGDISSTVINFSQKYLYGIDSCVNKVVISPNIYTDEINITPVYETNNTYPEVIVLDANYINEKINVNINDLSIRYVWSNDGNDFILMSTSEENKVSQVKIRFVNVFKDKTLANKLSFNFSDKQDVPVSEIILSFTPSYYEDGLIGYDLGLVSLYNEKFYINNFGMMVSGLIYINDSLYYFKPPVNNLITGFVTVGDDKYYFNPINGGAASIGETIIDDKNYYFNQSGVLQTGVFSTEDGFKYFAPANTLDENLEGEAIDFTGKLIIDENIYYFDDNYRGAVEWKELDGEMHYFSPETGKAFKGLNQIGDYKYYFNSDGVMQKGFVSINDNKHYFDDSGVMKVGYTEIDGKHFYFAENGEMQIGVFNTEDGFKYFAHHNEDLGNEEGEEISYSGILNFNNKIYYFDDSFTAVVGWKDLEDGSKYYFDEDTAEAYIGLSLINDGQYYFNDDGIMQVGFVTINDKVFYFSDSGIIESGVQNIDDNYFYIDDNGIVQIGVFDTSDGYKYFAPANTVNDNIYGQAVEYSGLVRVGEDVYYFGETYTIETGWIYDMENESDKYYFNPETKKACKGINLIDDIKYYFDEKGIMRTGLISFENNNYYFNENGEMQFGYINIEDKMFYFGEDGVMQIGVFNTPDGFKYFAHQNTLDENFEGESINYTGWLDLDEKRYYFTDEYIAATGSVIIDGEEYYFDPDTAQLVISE

One test deals with full length TcdB (Clostridioides difficile, UniProt P18177).
Experiment: not given
The note with it: read-out: IC50 of inhibition of labeling of the CPD, IP6 activated, AWP-19 labeling.
Take `O=c1c2ccccc2[se]n1-c1ccccc1` [Ebselen, 2-phenyl-1,2-benzoselenazol-3-one]: the half-inhibitory concentration (IC50) is 0.0172 µM.

The next test concerns the target T1, TcdB CPD (Clostridioides difficile, UniProt P18177).
T1 construct: The compounds were screened against the recombinantly expressed cysteine protease domain; made in house
The experiment in a line: biochemical.
Details: not given
Also on record: species or system Clostridium difficile.
The compound `COC(=O)N1CCN(C(=O)Cn2sc3nc(C)cc(C)c3c2=O)CC1` [STF 102635] came in with a 50% inhibitory concentration (IC50) of 4.84 µM.

Consider `Cc1cc(C)c2c(=O)n(CC(=O)NCCc3ccc(Cl)cc3)sc2n1` [STF 102655], for which half-maximal inhibition (IC50) was put at 3.14 µM.

Consider `CCOCCCNC(=O)Cn1sc2nc(C)cc(C)c2c1=O` [STF 102644], for which half-maximal inhibition (IC50) required 2.81 µM.

As to `Cc1cc(C)c2c(=O)n(CC(=O)NCCCSC3CCCCC3)sc2n1` [STF 102625], the IC50 is 1.32 µM.

`COCCNC(=O)Cn1sc2nc(C)cc(C)c2c1=O` [STF 102766]: the half-maximal inhibitory concentration (IC50) was determined as 2.38 µM.

`Cc1cc(C)c2c(=O)n(CC(=O)NCc3ccc4c(c3)OCO4)sc2n1` [STF 102654]: half-maximal inhibition (IC50) required 3.9 µM.

`CCCCNC(=O)Cn1sc2nc(C)cc(C)c2c1=O` [STF 102686]: the IC50 was determined as 1.98 µM.

Compound `Cc1cc(C)c2c(=O)n(CC(=O)NC(C)CCc3ccccc3)sc2n1` (stereo not drawn) [STF 102645] showed an IC50 of 3.99 µM.

The target of the next test is TcdB protease (Clostridioides difficile, UniProt P18177). The experiment in a line: biochemical. Details: species or system Clostridium difficile.
Sequence of TcdB protease (P18177 544-797 limits assumed): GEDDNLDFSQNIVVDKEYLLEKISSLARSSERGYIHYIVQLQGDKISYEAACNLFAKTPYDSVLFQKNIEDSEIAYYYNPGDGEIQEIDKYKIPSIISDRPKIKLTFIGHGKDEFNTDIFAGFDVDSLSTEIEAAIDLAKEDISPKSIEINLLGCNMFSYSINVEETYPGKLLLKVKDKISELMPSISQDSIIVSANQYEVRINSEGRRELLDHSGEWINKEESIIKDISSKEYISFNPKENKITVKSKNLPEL
Details: not given
`O=C(Nc1ccc(F)c(Cl)c1)c1ccccc1[Se][Se]c1ccccc1C(=O)Nc1ccc(F)c(Cl)c1` [MG-43, 2,2′-diselane-1,2-diylbis[N-(3-chloro-4-fluorophenyl)benzamide]] showed an IC50 of 5.09 µM.

`COc1cccc(NC(=O)c2ccccc2[Se][Se]c2ccccc2C(=O)Nc2cccc(OC)c2)c1` [MG-56, 2,2′-diselane-1,2-diylbis[N-(3-methoxyphenyl)benzamide]] came in with an IC50 of 3.95 µM.

As to `COc1ccc(-n2[se]c3ccccc3c2=O)c(C)c1` [MG-1, 2-(4-methoxy-2-methylphenyl)-1,2-benzoselenazol-3-one], the IC50 was 6.47 µM.

In the case of `Cc1ccc(-n2[se]c3ccccc3c2=O)cc1` [MG-13, 2-(4-methylphenyl)-1,2-benzoselenazol-3-one], inhibition was half-maximal at 4.9 µM (IC50).

`COc1ccc(Cl)cc1NC(=O)c1ccccc1[Se][Se]c1ccccc1C(=O)Nc1cc(Cl)ccc1OC` [MG-7, 2,2′-diselane-1,2-diylbis[N-(5-chloro-2-methoxyphenyl)benzamide]] showed an IC50 of 9.6 µM.

On to `O=c1c2ccccc2[se]n1-c1ccccc1O` [MG-174, 2-(2-hydroxyphenyl)-1,2-benzoselenazol-3-one], for which the midpoint of inhibition, the IC50, lay at 4.86 µM.

As for `Cc1ccc(NC(=O)c2ccccc2[Se][Se]c2ccccc2C(=O)Nc2ccc(C)cc2Cl)c(Cl)c1` [MG-12, 2,2′-diselane-1,2-diylbis[N-(2-chloro-4-methylphenyl)benzamide]], half-maximal inhibition (IC50) was put at 3.98 µM.

Compound `O=C(Nc1ccc(F)cc1Cl)c1ccccc1[Se][Se]c1ccccc1C(=O)Nc1ccc(F)cc1Cl` [MG-40, 2,2′-diselane-1,2-diylbis[N-(2-chloro-4-fluorophenyl)benzamide]] displayed an IC50 of 7.38 µM.

The compound `O=c1c2ccccc2[se]n1-c1ccccc1` [Ebselen, 2-phenyl-1,2-benzoselenazol-3-one] gave an IC50 of 5.14 µM.

In the case of `O=C(Nc1ccc(F)cc1F)c1ccccc1[Se][Se]c1ccccc1C(=O)Nc1ccc(F)cc1F` [MG-33, 2,2′-diselane-1,2-diylbis[N-(2,4-difluorophenyl)benzamide]], 2.7 µM corresponded to half-maximal inhibition (IC50).

Compound `COc1ccc(C)cc1-n1[se]c2ccccc2c1=O` [MG-2, 2-(2-methoxy-5-methylphenyl)-1,2-benzoselenazol-3-one] returned an IC50 of 5.58 µM.

The compound `Cc1c(Cl)cccc1NC(=O)c1ccccc1[Se][Se]c1ccccc1C(=O)Nc1cccc(Cl)c1C` [MG-61, 2,2′-diselane-1,2-diylbis[N-(3-chloro-2-methylphenyl)benzamide]] showed an IC50 of 5.97 µM.

`Cc1ccc(Cl)c(NC(=O)c2ccccc2[Se][Se]c2ccccc2C(=O)Nc2cc(C)ccc2Cl)c1` [MG-10, 2,2′-diselane-1,2 - diylbis[N-(2-chloro-5-methylphenyl)benzamide]]: the concentration for half-maximal inhibition (IC50) is 7.33 µM.

Compound `O=C(Nc1ccccc1F)c1ccccc1[Se][Se]c1ccccc1C(=O)Nc1ccccc1F` [MG-31, 2,2′-diselane-1,2-diylbis[N-(2-fluorophenyl)benzamide]] gave a concentration for half-maximal inhibition (IC50) of 4.92 µM.

Turning to `O=c1c2ccccc2[se]n1-c1ccc(Cl)cc1F` [MG-34, 2-(4-chloro-2-fluorophenyl)-1,2-benzoselenazol-3-one], the midpoint of inhibition, the IC50, lay at 6.5 µM.

Regarding `O=c1c2ccccc2[se]n1-c1ncccc1O` [MG-48, 2-(3-hydroxypyridin-2-yl)-1,2-benzoselenazol-3-one], the IC50 turned out to be 7.44 µM.

The compound `COc1ccc(C(C)(C)C)cc1-n1[se]c2ccccc2c1=O` [MG-8, 2-(2-methoxy-5-t-butylphenyl)-1,2-benzoselenazol-3-one] showed an IC50 of 8.5 µM.

The next test addresses TcdB (Clostridioides difficile, UniProt P18177). The experiment in a line: Mouse TcdB toxigenic model. It counts as in vivo. The note with it: mice i.p. 25 ng TcdB pretreated with 100 nM ebselen; 72 hours.
For `O=c1c2ccccc2[se]n1-c1ccccc1` [Ebselen, 2-phenyl-1,2-benzoselenazol-3-one], the “changes in vital signs (clinical signs of toxin action)” value is recorded as “no significant changes in vital signs”.

The same test, now with this note: mice i.p. 25 ng TcdB pretreated with 100 nM ebselen; monitored three days.
As to `O=c1c2ccccc2[se]n1-c1ccccc1` [Ebselen, 2-phenyl-1,2-benzoselenazol-3-one], the survival rate is reported as 100%.

The subject of a further test is human foreskin fibroblast (HFF cells). The experiment in a line: cells. It counts as cell-based. The note with it: read-out: EC50 of blocking cell rounding.
For the compound `O=c1c2ccccc2[se]n1-c1ccccc1` [Ebselen, 2-phenyl-1,2-benzoselenazol-3-one], the concentration giving a half-maximal response (EC50) stood at 0.021 µM.

The same test, now with this note: read-out: EC50 of protective effect against cell rounding.
Consider `O=c1c2ccccc2[se]n1-c1ccccc1` [Ebselen, 2-phenyl-1,2-benzoselenazol-3-one], for which the EC50 amounted to 0.217 µM.
